The text below walks through data of US20230416245A1, “ADENOSINE ANALOGS FOR THE TREATMENT OF DISEASE” (BIOINTERVENE, INC., priority 2020, published 2023).

For assay [1], the target named is T1, human adenosine A3 receptor (Homo sapiens (Human), UniProt P0DMS8). The assay is described as follows: Adenosine receptor binding assay ([125I]-AB-MECA competition). The conditions noted are these: inhibition of 0.15 nM [125I]-AB-MECA binding, membranes of cells expressing human A3 receptor; read-out: hA3 Ki: Ki. An excerpt: Example 30: Adenosine Receptor Binding Assay
T1 sequence (P0DMS8 whole entry): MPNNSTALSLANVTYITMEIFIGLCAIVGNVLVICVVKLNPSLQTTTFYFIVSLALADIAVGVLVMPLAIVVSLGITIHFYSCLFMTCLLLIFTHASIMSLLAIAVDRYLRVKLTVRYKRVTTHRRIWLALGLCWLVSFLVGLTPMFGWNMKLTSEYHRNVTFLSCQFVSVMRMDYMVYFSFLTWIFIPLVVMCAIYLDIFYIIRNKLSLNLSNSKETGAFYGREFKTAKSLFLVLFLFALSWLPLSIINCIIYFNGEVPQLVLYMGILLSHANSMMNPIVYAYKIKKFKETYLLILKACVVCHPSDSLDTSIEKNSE
Materials and Reference Compounds: [^125I]-AB-MECA and [^3H]CCPA are both obtained from Amersham Biosciences (Little Chalfont, UK). IB-MECA are obtained from Tocris (Bristol, UK) and N6-cyclopentyl adenosine (CPA) is obtained from Sigma-Alrich (Poole, UK). Cell culture media, G418 and hygromycin are obtained from Invitrogen (Paisley, UK). Fetal calf serum is obtained from Perbio Science (Cheshire, UK). All other reagents are obtained from Fisher Chemicals (Loughborough, UK).
The method followed is that of Yates L, Clark J H, Martin T J, James S, Broadley K J, Kidd E J. Radioligand binding and functional responses of ligands for human recombinant adenosine A3 receptors. Auton Autacoid Pharmacol. 2006; 26(2):191-200. Cells stably transfected with the human adenosine A3 or A1 receptor are grown in Dulbecco's modified Eagles medium with nutrient mixture F12 containing NaHCO3 and Glutamax. Media is supplemented with 10% fetal calf serum, geneticin (G418; 0.67 mg/mL), hygromycin (500 μg/mL) and adenosine deaminase (1 U/mL). Cells are maintained at 37° C. with 5% CO2 in air. Cells are harvested and homogenized in ice-cold Tris buffer [50 mM Tris, 150 mM NaCl, 1 mM ethylenediaminetetraacetic acid (EDTA), pH 7.4] supplemented with the peptidase inhibitors, 4-(2-aminoethyl)benzenesulfonylfluoride (1 mM) and bacitracin (0.1 mg/mL), using a Polytron homogenizer (3×10 s bursts). The homogenate was spun for 10 min (4° C.) at 500 g. The supernatant is retained and the pellet is re-suspended in the buffer, homogenized and spun as above. The combined supernatants are centrifuged for 15 min (4° C.) at 48,000 g. The resultant pellet is re-suspended in the buffer and centrifuged for a second time at 48,000 g. The membrane pellet is then suspended in Tris buffer containing no peptidase inhibitors or adenosine deaminase and stored at −80° C. at a protein concentration of 1 mg/mL.
Binding Assays: Radioligand-binding assays were performed using the adenosine A3 receptor agonist [^125I]-AB-MECA and the A1 receptor agonist [^3H]CCPA. Binding assays were conducted in a total volume of 100 μL containing a 50 mM Tris, pH 7.4 buffer with or without 10 mM MgCl2, 20 μg membranes and either 0.15 nM [^125I]-AB-MECA (for the A3 receptor) or 1 nM [^3H]CCPA (for the A1 receptor). Assays were conducted at room temperature for 60 min (A1 receptor) or 120 min (A3 receptor) and terminated by the addition of 2 ml of ice-cold wash buffer (50 mM Tris, pH 7.4 with or without 10 mM MgCl2) and rapid filtration over 0.03% polyethylenimine-treated Whatman GF/C filters using a Brandel cell harvester (Semat International Ltd., St Albans, UK). Filters were then washed three times with 2 ml of ice-cold buffer. The filter-bound radioactivity were counted using a Compugamma counter (LKB Wallac, Turku, Finland). Competition experiments were performed to investigate the ability of reference compounds and embodiments of the invention to inhibit [^125I]-AB-MECA binding. Non-specific binding were determined using the respective compound at its highest concentration.
Data Analysis: The Kd and Bmax values for binding data were calculated based upon the molar amounts of bound and free [^125I]-AB-MECA. […] IC50 and Ki values and Hill slopes for inhibition of the radioligand binding by the compounds of the invention were calculated from the ligand competition curves using the Excel spreadsheet and the Kd value calculated for either [^125I]-AB-MECA or [^3H]CCPA. The results were expressed as a percent of control specific binding and as a percent inhibition of control specific binding obtained in the presence of the compounds of the invention. The IC50 values (concentration causing a half-maximal inhibition of control specific binding) and Hill coefficients (nH) were determined by non-linear regression analysis of the competition curves generated with mean replicate values using Hill equation curve fitting: […]

Assay [2] addresses T1, human adenosine A3 receptor. The assay is described as follows: Intracellular cAMP levels (inhibition of forskolin-stimulated cAMP production). It counts as cell-based. Particulars: for pEC50: CHO cells expressing human adenosine A3 receptors, forskolin 10 μM; for CAMP Efficacy (%): maximal response as percentage of the response produced by 100 nM IB-MECA. The text has this: Example 31: Intracellular cAMP Levels
The method followed is that published in Yates L, Clark J H, Martin T J, James S, Broadley K J, Kidd E J. Radioligand binding and functional responses of ligands for human recombinant adenosine A3 receptors. Auton Autacoid Pharmacol. 2006 April; 26(2):191-200.
Materials and Cell Culture: Adenosine deaminase was obtained from Roche (Lewes, UK). Forskolin was obtained from Sigma-Aldrich (Poole, UK). The sources of other materials are provided above in Example 1. CHO-K1 cells stably transfected with the human adenosine A3 receptor were grown in Dulbecco's modified Eagles medium with nutrient mixture F12 containing NaHCO3 and Glutamax. Media was supplemented with 10% fetal calf serum, geneticin (G418; 0.67 mg/mL), hygromycin (500 μg/mL) and adenosine deaminase (1 U/mL). Cells were maintained at 37° C. with 5% CO2 in air.
cAMP Measurements: Intracellular cAMP production was measured directly using a non-acetylation cAMP enzyme immunoassay (Amersham Biosciences, Little Chalfont, UK). Cultured CHO cells expressing human adenosine A3 receptors were allowed to plate overnight in 96-well plates in culture medium containing adenosine deaminase. Twenty-four hours later, they were incubated with adenosine analogues or compounds of the invention (0.1 nM-1 μM) for 5 min at 37° C., followed by incubation with forskolin (10 μM) for 10 min. The cells were then lysed with 200 μL of lysis reagent 1 provided with the kit for 10 min to release intracellular cAMP. Aliquots of the supernatants were then transferred to a 96-well microtitre plate coated with donkey anti-rabbit IgG; 100-μL cAMP standards (12.5-3200 fmol/well) were also added to the microtitre plate; 100 μL of rabbit anti-cAMP antibody was added to all wells and incubated at 2-5° C. for 2 h. The antiserum was made up in lysis reagent 2, which sequesters the key component in lysis reagent 1 and ensures that cAMP is free for subsequent analysis. Then 50 μL of cAMP peroxidase conjugate was added to all wells and left to incubate for 60 min at 2-5° C. to allow competition for the antibody between the un-labelled and horse radish peroxidase (HRP)-labelled cAMP. Wells were then washed with buffer and 150 μL of enzyme substrate containing 3,3′,5,5′-tetramethylbenzidine/hydrogen peroxide in 20% (v/v) dimethylformamide was added to each well and left to incubate for 60 min on a Titramax 100 microtitre plate shaker (Heidolph Instruments, Schwabach, Germany) at room temperature for color development. The reaction was stopped by the addition of 100 μL of 1 M sulfuric acid and the optical density (OD) read at 450 nm on a spectrophotometric MRX microplate reader (Dynex Technologies, Chantilly, VA, USA).
Analyses: Each sample/standard was analyzed in duplicate and the resulting OD values averaged. The percent bound (B/Bo) for each standard and sample was calculated using the following relationship: […]
where B is the specific OD for standard/sample and Bo is the specific OD for the zero standard. A standard curve was generated by plotting % B/Bo as a function of the log fmol cAMP standard per well. The fmol per well value for cAMP in each sample was then read from the graph. The results are expressed as a percent of control agonist response: (measured response/control response)*100 in the presence of the compounds of the invention. Concentration-response curves for inhibition of cAMP production were constructed for all compounds of the invention and reference compounds. The EC50 values (concentration producing a half-maximal response) were determined by non-linear regression analysis of the concentration-response curves generated with mean replicate values using Hill equation curve fitting, according to the equation:
where Y=response, A=left asymptote of the curve, D=right asymptote of the curve, C=compound concentration, and C50=EC50, and nH=slope factor. […]
On the technique in general: Cyclic AMP is a second messenger, typically raised through Gs and lowered through Gi signalling.

Assay [3] has as its target ADORA3 (Homo sapiens (Human), UniProt P0DMS8). The assay is described as follows: Intracellular calcium release assay (FLIPR). It counts as cell-based. The conditions noted are these: for pEC50: CHO-K1 cells, Fluo-4, top concentration 10 μM, read-out: Cell Calcium Assay EC50; for Cell Calcium Efficacy (%): percentage of the response to NECA. As for the experimental part:
Example 32: Intracellular Calcium Release Assay
Cell Culture: The table below lists the cell lines used that stably express the 4 subtypes of adenosine receptors, along with the growth medium used for each:
For experiments with the ADORA1- and ADORA3-expressing cells, the medium was aspirated and the cells washed twice with 10 mL DPBS. Two mL of trypsin was added and incubated at 37° C. for 1 minute. Then 10 mL of platting media was added to terminate the digestion and 1 mL of the solution was taken out for cell counting. ADORA2A- and ADORA2B-expressing cells were thawed rapidly in a 37° C. water bath. Cell suspensions were transferred to 50 mL conical tubes. Plating media was added to the 10 mL mark and then 1 mL taken out for cell counting. The 50 mL tubes containing the various types of cells were centrifuged at 1000 g. Then the supernatants were aspirated, being careful not to aspirate the cells. The cell pellets were resuspended in 3-5 mL platting media, then 0.5 mL was taken out for cell counting. Then the cell suspension was diluted to 1×10^6 cells/mL (20,000 cells per 20 μL per well) in platting medium, and cells were seeded into 384-well cell plates (Greiner-781946). The 384-well cell plate was placed in a 37° C./5% CO2 incubator (Thermo-371, Thermo Scientific) for 16-20 hours.
Preparation of the intracellular calcium imaging agent (Fluo-4 Direct™ Calcium Assay Kit, Invitrogen-F10471, Thermo Scientific): One mL of FLIPR Assay Buffer was added to 77 mg probenecid to make a 250 mM solution, which was used fresh for each day. One vial of Fluo-4 Direct™ crystals was thawed and 10 mL of FLIPR Assay Buffer was added to the vial. 0.2 mL of probenecid was added to each 10 mL vial of Fluo-Direct™ solution, such that the final assay concentration was 2.5 mM. It was vortexed, left to stand >5 min and protected from light. The dye was prepared fresh each day.
Compound Preparation: Compound plates were prepared as follows. First, the test compound was diluted to prepare a 2 mM solution and then 10-point 3-fold serial dilutions were made using ECHO (ECHO 555, LabCyte), then 900 nL was transferred to the compound plate. For all targets, the final top concentration of the test compound was […]. For agonist reference compounds, 10-point and 3-fold serial dilutions were made, then 900 nL was transferred to the assay plate. Then 30 μL of assay buffer was added to the compound plate and then the plate was centrifuged at 1000 rpm for 1 min.
FLIPR Assay: Cell plates were removed from the incubator, to which were added 20 μL 2×Fluo-4 Direct™ solution, then the plates were reincubated in a 5% CO2, 37° C. incubator for 50 min and at RT for 10 min. To run the protocol on the Fluorescent Imaging Plate Reader (FLIPR) TETRA (MD-FT0249, Molecular Devices, Inc.), 10 μL of assay buffer was transferred from the 384-well plate (Greiner-781280) to the cell plates and then the fluorescence signal was read. Then 10 μL of compound solution was transferred from the compound plate to the cell plates and the fluorescence signal was read. The “Max-Min” was calculated, starting from Read 91 to the maximum allowed. For agonists, activation %=(RLU−LC)/(HC−LC)*100, based on the following: RLU=relative light unit, 91 to maximum allowed signal; HC=average signal of the high concentration of agonist; LC=average signal of DMSO well. The data were fitted using GraphPad Prism 5, using the model “log(agonist) vs. response—Variable slope” to determine the EC50 value. The receptor efficacy of the test compound relative to the agonist NECA was calculated as a percentage (%) of the response to […]. Table 10 includes EC50 values for compounds described herein.
On the technique in general: Calcium flux is commonly read through the fluorescence of an indicator in the cells.

pEC50, pKi: −log10 of the molar value.

Sequence of ADORA3 (P0DMS8 whole entry): as above

The term pKi denotes the Ki on a negative log10 scale, so that one unit is a factor of ten. Take `CCCNc1cc(Cl)nc2c1ncn2[C@H]1[C@H](O)[C@H](O)[C@@H]2C[C@@H]21` [Compound 66]: in assay [1], the negative logarithm of the Ki (pKi) was 6.90.

For the molecule `CCNc1c(Cl)c(Cl)nc2c1ncn2[C@H]1[C@H](O)[C@H](O)[C@@H]2C[C@@H]21` [Compound 71, (1R,2R,3S,4R,5S)-4-(5,6-dichloro-7-(ethylamino)-3H-imidazo[4,5-b]pyridin-3-yl)bicyclo[3.1.0]hexane-2,3-diol], in assay [1], the pKi was 6.34.

On to `CNC(=O)[C@@]12C[C@@H]1[C@@H](n1cnc3c(N)cc(Cl)nc31)[C@H](O)[C@@H]2O` [Compound 90, (1S,2R,3S,4R,5S)-4-(7-amino-5-chloro-3H-imidazo[4,5-b]pyridin-3-yl)-2,3-dihydroxy-N-methylbicyclo[3.1.0]hexane-1-carboxamide], for which, in assay [1], the pKi was 8.62.

For orientation: pEC50 means the negative decadic logarithm of the EC50, by convention in mol/L. Regarding `CCNc1nc(C#CC2CC2)nc2c1ncn2[C@H]1[C@H](O)[C@H](O)[C@@H]2C[C@@H]21` [Compound 39, (1R,2R,3S,4R,5S)-4-(2-(cyclopropylethynyl)-6-(ethylamino)-9H-purin-9-yl)bicyclo[3.1.0]hexane-2,3-diol], in assay [2], the negative logarithm of the EC50 (pEC50) was 9.70 and the “CAMP Efficacy (%)” value was found to be 54.4%. Besides, in assay [3], the pEC50 was 8.01 and the “Cell Calcium Efficacy (%)” value was found to be 15.4%.

With `CNC(=O)[C@@]12C[C@@H]1[C@@H](n1cnc3c(NCCO)cc(Cl)nc31)[C@H](O)[C@@H]2O` [Compound 91, (1S,2R,3S,4R,5S)-4-(5-chloro-7-((2-hydroxyethyl)amino)-3H-imidazo[4,5-b]pyridin-3-yl)-2,3-dihydroxy-N-methylbicyclo[3.1.0]hexane-1-carboxamide], in assay [1], the pKi was 8.29.

`CCNc1cc(Cl)nc2c1ncn2[C@H]1[C@H](O)[C@H](O)[C@]2(C(=O)NC)C[C@H]12` [Compound 59, (1S,2R,3S,4R,5S)-4-(5-chloro-7-(ethylamino)-3H-imidazo[4,5-b]pyridin-3-yl)-2,3-dihydroxy-N-methylbicyclo[3.1.0]hexane-1-carboxamide]: in assay [2], the negative logarithm of the EC50 (pEC50) was 9.96 and the “CAMP Efficacy (%)” value is reported as 106.95%. In assay [3], the negative-log EC50 (pEC50) was 8.92 and the “Cell Calcium Efficacy (%)” value is given as 103.9%.
